The text below walks through data of EP4772508A1, “MACROCYCLIC COMPOUND AND USE THEREOF” (Jiangsu Hengrui Pharmaceuticals Co., Ltd., priority 2023, dated 2025).

Read-outs that look alike come from different tables or passages of the source. Marks after values point to notes of the source that are not given here.

A short description of data set [1]: Relaxivity of the compound in water. To be noted: deionized water. It is filed as physicochemical. On the procedure: Test example 1: Relaxivity of the compound in water
Niumag (Suzhou) Nuclear Magnetic Resonance Contrast Agent Relaxivity Analyser with a 0.5 T magnetic field
Bruker Small Animal Magnetic Resonance Imaging System (BioSpec 70/20 USR) with a 7 T magnetic field
1 mL of the test sample was placed in a 1.5 mL EP (eppendorf) tube, and the longitudinal relaxation time T1 and transverse relaxation time T2 under different magnetic field conditions were measured separately using the Niumag (Suzhou) Nuclear Magnetic Resonance Contrast Agent Relaxivity Analyser with a 0.5 T magnetic field. The test sample was loaded into a 0.2 mL sample tube until full, and the longitudinal relaxation time T1 and transverse relaxation time T2 under different magnetic field conditions were measured separately using the Bruker Small Animal Magnetic Resonance Imaging System (BioSpec 70/20 USR) with a 7 T magnetic field.
(§1) Based on the relaxation times T1 and T2 of samples at different concentrations, the relaxivities r1 and r2 were calculated respectively. The relaxivity was calculated according to the following equation: r = (1)/(ΔT)/C, [formula] r: relaxivity; T: relaxation time (s); C: contrast agent concentration (mM).

The nature of data set [2]: Relaxivity of compounds in human plasma. Type of data set: physicochemical. To be noted: human plasma containing sodium heparin, 0.5 T. The procedure: as §1
The nature of data set [3]: Metal transfer stability test in the presence of zinc ions. It is filed as physicochemical. To be noted: equal volumes 2.5 mM contrast agent and 2.5 mM ZnCl2, phosphate buffer, 37°C, 0.5 T. The procedure:
Test example 4: Metal transfer stability test of compounds in the presence of zinc ions • 1 . Experimental protocol • 2. […] Experiment instruments: VTMR20-010V-I Nuclear Magnetic Resonance Cross-Linking Density Imaging Analyser • 4. Experimental method
A 2.5 mM solution of contrast agent solutions and a 2.5 mM solution of zinc chloride were respectively prepared in phosphate buffer (0.026 mol/L KH2PO4 and 0.041 mol/L Na2HPO4). An equal volume of a 2.5 mM ZnCl2 solution was added to the a 2.5 mM gadolinium contrast agent solution, and the mixture was mixed by shaking. This moment of complete mixing was designated as time zero (t = 0). Immediately thereafter, a 0.5 mL aliquot was withdrawn and subjected to measurement of the longitudinal relaxation time, T1(0), at 37°C and a magnetic field strength of 0.5 T. The mixed solution was then incubated at 37°C. 0.5 mL of the solution was taken at time points of 5 min, 180 min, 1440 min and 5760 min, respectively, to determine T1(t) at different time points. The ratio of the relaxivity at different time points to the initial relaxivity at time 0, namely R1(t)/R1(0), was calculated.

Another data set concerns canine plasma proteins. To be noted: dog, 1000 µM. The procedure:
After the preparation of plasma samples, 0.5 mL of plasma samples were transferred into ultracentrifugation tubes, with 3 replicates per concentration. After incubation in a CO2 incubator at 37°C for 0.5 h, the samples were subjected to ultracentrifugation at 627,000 g for 3 hours at 37°C. After centrifugation, 100 µL of samples were taken from the central layer of the ultracentrifugation tubes and mixed with 100 µL of blank plasma. The samples were stored at -70°C for subsequent determination.
The plasma protein binding rates of analytes at different concentration levels were calculated using the following formulas: [formula] Binding rate% = 100%−Free rate%. [formula]

Where [4] appears, read: hydrochloric acid pH 1.2, 37°C, 8 × 10^-6 M, 0 h.
Setting [5] is: hydrochloric acid, 24 h, 8 µM, pH 1.2.
Setting [6] is: hydrochloric acid, 48 h, 8 µM, pH 1.2.
Setting [7] is: hydrochloric acid, 96 h, 8 µM, pH 1.2.

As to Gadobutrol, the results for the “Relaxivity r1” value in data set [1] (0.5 T), in data set [1] (7 T) and in data set [2] were 4.4 mM⁻¹ s⁻¹, 3.5 mM⁻¹ s⁻¹ and 7.5 mM⁻¹ s⁻¹, respectively. Further, the “R1(t)/R1(0)” value in data set [3] (0 min) was 1; in data set [3] (5 min), 0.93; in data set [3] (180 min) it was 0.82; in data set [3] (1440 min), 0.96; in data set [3] (5760 min) it was 0.90. The “Gd^3+ Dissociation rate (%)” value is, setting by setting: under setting [4], “BLQ”; under setting [5], 73.5%; under setting [6], 70.1%; under setting [7], 64.6%.
For Gadodiamide, the “R1(t)/R1(0)” value worked out at 1 in data set [3] (0 min); 1.07 in data set [3] (5 min); 0.59 in data set [3] (180 min); 0.59 in data set [3] (1440 min); 0.38 in data set [3] (5760 min).
For Gadopiclenol [RC1], the entries for the “Relaxivity r1” value in data set [1] (0.5 T) and in data set [1] (7 T) were 11.7 mM⁻¹ s⁻¹ and 6.3 mM⁻¹ s⁻¹, respectively. Moreover, the “Average% (binding rate)” value with canine plasma proteins is on record as 0* %. In addition, the “Gd^3+ Dissociation rate (%)” value reads like this: under setting [4], “BLQ”; under setting [5], 24.7%; under setting [6], 35.6%; under setting [7], 37.8%.
